From patent US11999699B2, “Substituted pyrazole amides” (GRUENENTHAL GMBH, priority 2021, dated 2024)
pIC50: −log10 of the molar value.

These compounds were tested against T1, human NaV1.8 (Homo sapiens, UniProt Q9Y5Y9) (assay: Electrophysiology: automated whole-cell voltage-clamp (patch clamp, Qube384) recordings of sodium currents in HEK-NaV1.8 cells). Conditions: potency data either taken from inactivated or resting state, read-out: Potency category (human NaV1.8 IC50).
T1 construct: The following NaV1.8 recombinant cell line was used for recordings: HEK-NaV1.8 (NM 006514.1); expressed in transfected cells; host or cells: HEK (recombinant cell line HEK-NaV1.8)
Format: cell-based
Procedure, shortened: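 Automated whole-cell patch clamp at room temperature on HEK cells expressing human NaV1.8, with 0.3% DMSO vehicle controls. State-dependent protocol from −120 mV tested resting (P1) and half-inactivated (P2, 4 s at V1/2) channels, plus 40-pulse trains at 10 and 20 Hz. Values after ~12 min compound exposure were normalised to baseline and corrected for vehicle run-down; IC50 from a 4-parameter logistic fit, taken from inactivated or resting state.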

T1 sequence (Q9Y5Y9 whole entry): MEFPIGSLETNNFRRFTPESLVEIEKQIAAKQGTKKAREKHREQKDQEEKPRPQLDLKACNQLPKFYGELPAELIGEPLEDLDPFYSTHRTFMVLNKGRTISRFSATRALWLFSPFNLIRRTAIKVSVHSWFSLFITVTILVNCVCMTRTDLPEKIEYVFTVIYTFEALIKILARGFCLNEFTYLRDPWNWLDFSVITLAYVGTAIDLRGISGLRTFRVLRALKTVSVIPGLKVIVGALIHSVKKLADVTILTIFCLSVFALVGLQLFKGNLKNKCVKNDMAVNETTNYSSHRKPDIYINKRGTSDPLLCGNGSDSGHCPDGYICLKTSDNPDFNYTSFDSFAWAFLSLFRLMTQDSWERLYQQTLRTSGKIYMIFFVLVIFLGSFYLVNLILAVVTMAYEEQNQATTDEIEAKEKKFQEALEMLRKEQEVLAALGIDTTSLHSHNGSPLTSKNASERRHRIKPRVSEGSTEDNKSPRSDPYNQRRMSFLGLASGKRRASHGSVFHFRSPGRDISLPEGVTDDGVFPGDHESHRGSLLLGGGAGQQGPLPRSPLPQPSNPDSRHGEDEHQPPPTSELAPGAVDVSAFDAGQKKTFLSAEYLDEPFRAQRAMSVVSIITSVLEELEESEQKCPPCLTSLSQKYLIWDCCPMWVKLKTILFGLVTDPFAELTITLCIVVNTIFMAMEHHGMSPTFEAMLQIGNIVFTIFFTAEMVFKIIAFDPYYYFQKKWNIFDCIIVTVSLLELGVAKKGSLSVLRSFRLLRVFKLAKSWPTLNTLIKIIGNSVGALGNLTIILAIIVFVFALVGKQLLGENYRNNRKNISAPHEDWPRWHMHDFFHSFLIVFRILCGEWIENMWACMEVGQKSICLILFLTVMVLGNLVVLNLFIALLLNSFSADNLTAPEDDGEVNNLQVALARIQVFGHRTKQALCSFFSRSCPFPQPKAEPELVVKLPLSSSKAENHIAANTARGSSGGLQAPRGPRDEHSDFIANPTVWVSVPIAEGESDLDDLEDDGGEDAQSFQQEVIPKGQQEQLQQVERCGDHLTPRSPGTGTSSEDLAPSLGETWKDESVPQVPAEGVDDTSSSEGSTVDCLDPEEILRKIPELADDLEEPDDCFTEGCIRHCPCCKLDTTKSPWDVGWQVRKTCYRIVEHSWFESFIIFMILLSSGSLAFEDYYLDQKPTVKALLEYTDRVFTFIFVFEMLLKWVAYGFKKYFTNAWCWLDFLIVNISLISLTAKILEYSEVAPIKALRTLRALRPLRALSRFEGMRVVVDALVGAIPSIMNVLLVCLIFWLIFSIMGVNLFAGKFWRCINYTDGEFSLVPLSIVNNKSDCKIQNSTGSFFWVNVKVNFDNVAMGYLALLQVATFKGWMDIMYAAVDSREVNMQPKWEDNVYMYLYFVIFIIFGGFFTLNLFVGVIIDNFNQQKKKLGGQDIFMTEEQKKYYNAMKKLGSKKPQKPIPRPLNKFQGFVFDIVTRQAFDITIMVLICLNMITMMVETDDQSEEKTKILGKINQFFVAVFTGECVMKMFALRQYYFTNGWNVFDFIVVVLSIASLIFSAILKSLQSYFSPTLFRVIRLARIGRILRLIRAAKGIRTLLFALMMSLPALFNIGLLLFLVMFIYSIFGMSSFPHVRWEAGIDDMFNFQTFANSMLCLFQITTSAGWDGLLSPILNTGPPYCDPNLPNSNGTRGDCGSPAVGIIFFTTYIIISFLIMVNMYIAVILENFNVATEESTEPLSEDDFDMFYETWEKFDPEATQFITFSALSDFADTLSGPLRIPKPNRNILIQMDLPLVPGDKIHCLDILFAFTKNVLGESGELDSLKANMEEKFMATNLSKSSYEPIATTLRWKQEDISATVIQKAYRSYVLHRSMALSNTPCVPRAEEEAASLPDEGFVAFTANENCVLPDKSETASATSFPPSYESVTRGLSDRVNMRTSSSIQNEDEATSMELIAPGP
T1 sequence (Q9NY72 23-215 partner): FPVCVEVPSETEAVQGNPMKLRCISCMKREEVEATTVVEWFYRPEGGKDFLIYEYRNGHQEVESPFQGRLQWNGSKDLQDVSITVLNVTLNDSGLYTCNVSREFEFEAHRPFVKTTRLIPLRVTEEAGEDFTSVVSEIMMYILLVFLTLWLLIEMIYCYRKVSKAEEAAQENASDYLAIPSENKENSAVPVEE

| SMILES | pIC50 |
| --- | --- |
| CCc1nn(CC2CCC(F)(F)C2)c(C(=O)Nc2ccnc(S(C)(=O)=O)c2)c1C(F)(F)F (centres unmarked) [SC-297, 1-((3,3-difluorocyclopentyl)methyl)-3-ethyl-N-(2-(methylsulfonyl)pyridin-4-yl)-4-(trifluoromethyl)-1H-pyrazole-5-carboxamide] | ≥ 7.00 |
| NC(=O)c1cc(NC(=O)c2c(OCC(F)(F)F)c(C3CC3)nn2CC2CCC(F)(F)C2)ccn1 (centres unmarked) [SC-298, 4-(3-cyclopropyl-1-((3,3-difluorocyclopentyl)methyl)-4-(2,2,2-trifluoroethoxy)-1H-pyrazole-5-carboxamido)picolinamide] | 5.00 to 6.00 |
| Cc1c(C(C)(F)F)nn(CC2(C(F)(F)F)CC(F)(F)C2)c1C(=O)Nc1ccnc(C(N)=O)c1 [SC-299, 4-(1-((3,3-difluoro-1-(trifluoromethyl)cyclobutyl)methyl)-3-(1,1-difluoroethyl)-4-methyl-1H-pyrazole-5-ca±oxamido)picolinamide] | ≥ 7.00 |
| Cc1c(C(C)(F)F)nn(C[C@H]2C[C@@H](F)C2)c1C(=O)Nc1ccnc(C(N)=O)c1 [SC-301, 4-(3-(1,1-difluoroethyl)-1-((3-fluorocyclobutyl)methyl)-4-methyl-1H-pyrazole-5-carboxamido)picolinamide] | 6.00 to 7.00 |
| CCc1nn(CC2CC(F)(F)C2)c(C(=O)Nc2ccnc(S(C)(=O)=O)c2)c1C [SC-302, 1-((3,3-difluorocyclobutyl)methyl)-3-ethyl-4-methyl-N-(2-(methylsulfonyl)pyridin-4-yl)-1H-pyrazole-5-carboxamide] | 6.00 to 7.00 |
| C[S+]([O-])c1cc(NC(=O)c2c(C(F)(F)F)c(C(C)(F)F)nn2CC2CC(F)(F)C2)ccn1 (centres unmarked) [SC-303, 1-((3,3-difluorocyclobutyl)methyl)-3-(1,1-difluoroethyl)-N-(2-(methylsulfinyl)pyridin-4-yl)-4-(trifluoromethyl)-1H-pyrazole-5-carboxamide] | ≥ 7.00 |
| Cc1nn(CC2CCC(F)(F)C2)c(C(=O)Nc2cccc(S(N)(=O)=O)c2)c1OC(F)(F)F (centres unmarked) [SC-304, 1-((3,3-difluorocyclopentyl)methyl)-3-methyl-N-(3-sulfamoyiphenyl)-4-(trifluoromethoxy)-1H-pyrazole-5-carboxamide] | 6.00 to 7.00 |
| CS(=O)(=O)c1cc(NC(=O)c2c(CC(F)(F)F)c(C3CC3)nn2CC2CCOCC2)ccn1 [SC-305, 3-cyclopropyl-N-(2-(methylsulfonyl)pyridin-4-yl)-1-((tetrahydro-2H-pyran-4-yl)methyl)-4-(2,2,2-trifluoroethyl)-1H-pyrazole-5-carboxamide] | 5.00 to 6.00 |
| COC1(Cn2nc(C(C)(F)F)c(C)c2C(=O)Nc2ccnc(S(N)(=O)=O)c2)CC1 [SC-308, 3-(1,1-difluoroethyl)-1-((1-methoxycyclopropyl)methyl)-4-methyl-N-(2-sulfamoylpyridin-4-yl)-1H-pyrazole-5-carboxamide] | 5.00 to 6.00 |
| Cc1c(OC(C)(F)F)nn(CC2CC(F)(F)C2)c1C(=O)Nc1ccnc(C(N)=O)c1 [SC-309, 4-(1-((3,3-difluorocyclobutyl)methyl)-3-(1,1-difluoroethoxy)-4-methyl-1H-pyrazole-5-carboxamido)picolinamide] | 5.00 to 6.00 |
| Cc1c(C(C)(F)F)nn(CC2(F)CC2)c1C(=O)Nc1ccnc(S(N)(=O)=O)c1 [SC-310, 3-(1,1-difluoroethyl)-1-((1-fluorocyclopropyl)methyl)-4-methyl-N-(2-sulfamoylpyridin-4-yl)-lH-pyrazole-5-carboxamide] | 6.00 to 7.00 |
| Cc1c(C(C)(F)F)nn(CC2(C(F)F)CC(F)(F)C2)c1C(=O)Nc1ccnc(C(N)=O)c1 [SC-311, 4-(3-(1,1-difluoroethyl)-1-((1-(difluoromethyl)-3,3-difluorocyclobutyl)methyl)-4-methyl-1H-pyrazole-5-carboxamido)picolinamide] | ≥ 7.00 |
| Cc1c(C(C)(F)F)nn(CC2(C)CC2)c1C(=O)Nc1ccnc(S(N)(=O)=O)c1 [SC-313, 3-(1,1-difluoroethyl)-4-methyl-1-((1-methyleyelopropyl)methyl)-N-(2-sulfamoylpyridin-4-yl)-lH-pyrazole-5-carboxamide] | ≥ 7.00 |
| Cc1c(C(C)(F)F)nn(CC2C[C@H]2C)c1C(=O)Nc1ccnc(S(N)(=O)=O)c1 (some centres unmarked) [SC-314, 3-(1,1-difluoroethyl)-4-methyl-1-((2-methyleyelopropyl)methyl)-N-(2-sulfamoylpyridin-4-yl)-lH-pyrazole-5-carboxamide] | ≥ 7.00 |
| Cc1c(C(C)(F)F)nn(CC2(C(F)F)CC(F)(F)C2)c1C(=O)Nc1ccnc(S(N)(=O)=O)c1 [SC-316, 3-(1,1-difluoroethyl)-1-((1-(difluoromethyl)-3,3-difluorocyclobutyl)methyl)-4-methyl-N-(2-sulfamoylpyridin-4-yl)-1H-pyrazole-5-carboxamide] | ≥ 7.00 |
| Cc1c(C(C)(F)F)nn(CC2(C)CCO2)c1C(=O)Nc1ccnc(S(N)(=O)=O)c1 (centres unmarked) [SC-317, 3-(1,1-difluoroethyl)-4-methyl-1-((2-methyloxetan-2-yl)methyl)-N-(2-sulfamoylpyridin-4-yl)-lH-pyrazole-5-carboxamide] | 5.00 to 6.00 |
| Cc1c(OC(F)(F)F)nn(CC2CC(F)(F)C2)c1C(=O)Nc1ccnc(C(N)=O)c1 [SC-318, 4-(1-((3,3-difluorocyclobutyl)methyl)-4-methyl-3-(trifluoromethoxy)-1H-pyrazole-5-carboxamido)picolinamide] | 6.00 to 7.00 |
| Cc1c(C(F)(F)F)nn(CC2CCC(F)(F)CC2)c1C(=O)Nc1ccnc(S(N)(=O)=O)c1 [SC-320, 1-((4,4-difluorocyclohexyl)methyl)-4-methyl-N-(2-sulfamoylpyridin-4-yl)-3-(trifluoromethyl)-1H-pyrazole-5-carboxamide] | ≥ 7.00 |
| Cc1nn(CC2CCC(F)(F)CC2)c(C(=O)Nc2cnnc(C(N)=O)c2)c1C(F)(F)F [SC-321, 5-(1-((4,4-difluorocyclohexyl)methyl)-3-methyl-4-(trifluoromethyl)-1H-pyrazole-5-carboxamido)pyridazine-3-carboxamide] | 6.00 to 7.00 |
| CS(=O)(=O)c1cc(NC(=O)c2c(OC(F)F)c(C3CC3)nn2CC2CCOCC2)ccn1 [SC-322, 3-cyclopropyl-4-(difluoromethoxy)-N-(2-(methylsulfonyl)pyridin-4-yl)-1-((tetrahydro-2H-pyran-4-yl)methyl)-1H-pyrazole-5-carboxamide] | 5.00 to 6.00 |
| Cc1c(OC(F)F)nn(CC2CC(F)(F)C2)c1C(=O)Nc1ccnc(S(C)(=O)=O)c1 [SC-323, 1-((3,3-difluorocyclobutyl)methyl)-3-(difluoromethoxy)-4-methyl-N-(2-(methylsulfonyl)pyridin-4-yl)-1H-pyrazole-5-carboxamide] | 6.00 to 7.00 |
| NC(=O)c1cc(NC(=O)c2c(C(F)(F)F)c(C(F)F)nn2CC2CC(F)(F)C2)ccn1 [SC-324, 4-(1-((3,3-difluorocyclobutyl)methyl)-3-(difluoromethyl)-4-(trifluoromethyl)-1H-pyrazole-5-carboxamido)picolinamide] | ≥ 7.00 |
| NC(=O)c1cc(NC(=O)c2c(C(F)(F)F)c(C(F)F)nn2CC2CCC(F)(F)C2)ccn1 (centres unmarked) [SC-325, 4-(1-((3,3-difluorocyclopentyl)methyl)-3-(difluoromethyl)-4-(trifluoromethyl)-1H-pyrazole-5-carboxamido)picolinamide] | ≥ 7.00 |
